Reference: patent US20220401514A1, “ANTIMICROBIAL, BACTERIOPHAGE-DERIVED POLYPEPTIDES AND THEIR USE AGAINST GRAM-NEGATIVE AND ACID-FAST BACTERIA” (CONTRAFECT CORPORATION, priority 2019, published 2022)

Legend:
[1] = tested on: carbapenem-resistant P. aeruginosa clinical isolate CFS-1292; assay: MIC by modified CLSI broth microdilution against P. aeruginosa CFS-1292 (CAA, CAA + human serum); assay type: cell-based, Pseudomonas aeruginosa; details: for MIC (μg/mL) against CFS-1292 in 100% CAA (1st run/2nd run): 1st run or single value
[2] = Stability assessment in 100% CAA; assay type: in vitro ADME; set-up: unit not given beside the values
Protocol: Stability was assessed after incubation in 100% human serum at 37° C. after 10 minutes, 1 hour, and 2 hours.
Stability assessment was further conducted in 100% CAA and rabbit serum using the same methodology discussed above.

M. smegmatis = assay: 45 hr MIC against M. smegmatis (NTM), Mueller Hinton broth; assay type: cell-based, Mycobacterium smegmatis; details: M. smegmatis MC^2 155, Run #1
Enterobacter cloacae = assay: microbe, parasite or virus in culture; assay type: cell-based; details: Enterobacter cloacae ATCC 13047; CAA supplemented with human serum
Protocol: (§1) Determination of Minimal Inhibitory Concentrations (MIC).
(§2) Additional MIC testing was performed for several peptides against the ESKAPE pathogens Escherichia coli, Enterobacter cloacae, Klebsiella pneumoniae, and Acinetobacter baumannii, in CAA supplemented with human serum (Table D).

Escherichia coli = assay: microbe, parasite or virus in culture; assay type: cell-based; details: Escherichia coli ATCC 25922; CAA supplemented with human serum
Protocol: as §1, §2

Klebsiella pneumoniae = assay type: cell-based; details: for MIC: Klebsiella pneumoniae HM-44, CAA supplemented with human serum
Protocol: as §1, §2

Acinetobacter baumannii = assay: microbe, parasite or virus in culture; assay type: cell-based; details: for MIC: Acinetobacter baumannii ATCC BAA 747, CAA supplemented with human serum
[3] = tested on: P. aeruginosa strain CFS-1292; assay: Checkerboard assay (FICI) with antibiotics, P. aeruginosa; assay type: cell-based, Pseudomonas aeruginosa; details: for Antibiotic FIC: P. aeruginosa CFS-1292; for Antibiotic MIC in checkerboard: P. aeruginosa CFS-1292, CAA + […] human serum
Protocol: Any known method to assess MIC may be used.
Checkerboards are constructed by first preparing columns of e.g., a 96-well polypropylene microtiter plate, wherein each well has the same amount of antibiotic diluted 2-fold along the horizontal axis. […] Bacteria are added to the drug combinations at concentrations of 1×10^5 […] in CAA, for example, with or without human serum or pulmonary surfactant. […] Summation fractional inhibitory concentrations (ΣFICs) are calculated for each drug and the minimum ΣFIC value (ΣFICmin) is used to determine the effect of the Chp peptide/antibiotic combination.
(§3) Checkerboard assays. […] Checkerboards were constructed by first preparing columns of a 96-well polypropylene microtiter plate, in which each well had the same amount of antibiotic diluted 2-fold along the horizontal axis. […] Summation fractional inhibitory concentration index (FICIs) were calculated for each drug and the minimum FICI was used to determine synergy. FICIs were calculated as follows: FICI=FIC A+FIC B, where FIC A is the MIC of each antibiotic in the combination/MIC of the each antibiotic alone, and FIC B is the MIC of each Chp peptide in the combination/MIC of each Chp peptide alone. The combination is considered synergistic when the FICI is ≤0.5, strongly additive when the FICI is >0.5 to <1, additive with the FICI is 1-<2, and antagonistic when the FICI is ≥2.
In the checkerboard assay, fractional inhibitory concentration index (FICI) values are calculated.

[4] = tested on: Klebsiella pneumoniae strain 1139; assay: Checkerboard assay (FICI) with antibiotics, K. pneumoniae; assay type: cell-based; details: for Antibiotic FIC / Antibiotic MIC: checkerboard
Protocol: as §3

[5] = tested on: Acinetobacter baumannii strain 30; assay: Checkerboard assay (FICI) with antibiotics, A. baumannii; assay type: cell-based; details: checkerboard
Protocol: as §3
The results are shown below in Tables 22-27.

LPS = assay: Endotoxin neutralization, limulus amoebocyte lysate (LAL) enzyme assay, LPS binding; assay type: biochemical; details: LPS 0.8 EU/mL
Protocol: CHEM. […] The standard reference samples contained only LPS dissolved in pyrogen-free water. Solutions were mixed well and incubated at 24° C. for 1 hour, and the manufacturers' test procedure for quantitative detection of endotoxins was followed.

Pseudomonas aeruginosa = assay: microbe, parasite or virus in culture; assay type: cell-based; details: P. aeruginosa isolates (n per peptide in table)
S. maltophilia = assay: MIC against S. maltophilia isolates; assay type: cell-based, Stenotrophomonas maltophilia; details: S. maltophilia isolates (n per peptide in table)
Protocol: as §1
In addition to the results discussed above in Example 3, further testing was conducted on several Chp peptides. MIC values were determined against different species, including P. aeruginosa, K. pneumoniae, A. baumannii, E. cloacae, E. coli, and S. maltophilia, and the results are presented below in Tables 40-45, wherein n=number of isolates tested for each species and MIC is measured as μg/mL.

[6] = tested on: carbapenem-resistant bacterial strains; assay: organism not typed; assay type: cell-based
Text: as §1

[7] = K. pneumoniae isolates (n per peptide in table)
[8] = A. baumannii isolates (n per peptide in table)

MTKRDIEYRKALGLNPSEPLPKIVGAVTRHGATLKRPRVTALAR [SBR77]
MIC (μg/mL) against CFS-1292 in 100% CAA (1st run/2nd run) [1]: 4 µg/mL | MIC (μg/mL) against CFS-1292 in CAA + […] human serum [1]: >16 µg/mL | MIC (μg/mL) against CFS-1292 in CAA + […] human serum ([1]; listed as SBR77 (Sbr1)): 0.5 µg/mL | MIC (100% CAA) [2]: >64 | 45 hr MIC (M. smegmatis): >64 µg/mL

MKRKPMSRKASQKTFKKNTGVQRMNHLNPRAMRGGIRL [Bdp1]
MIC (μg/mL) against CFS-1292 in 100% CAA (1st run/2nd run) [1]: 16 µg/mL | MIC (μg/mL) against CFS-1292 in CAA + […] human serum [1]: >32 µg/mL | MIC (Enterobacter cloacae): >32 µg/mL | MIC (Escherichia coli): >32 µg/mL | MIC (Klebsiella pneumoniae): >32 µg/mL | MIC (Acinetobacter baumannii): >32 µg/mL | MIC (100% CAA) [2]: 16 | 45 hr MIC (M. smegmatis): 32 µg/mL

colistin [reference compound]
Antibiotic FIC ([3]; combined with Chp2-M1): 0.25 | Antibiotic MIC in checkerboard ([3]; combined with Chp2-M1): 0.01562 µg/mL | Antibiotic FIC ([3]; combined with Chp2): 0.25 | Antibiotic MIC in checkerboard ([3]; combined with Chp2): 0.01562 µg/mL | Antibiotic FIC ([3]; combined with Chp4-M1): 0.25 | Antibiotic MIC in checkerboard ([3]; combined with Chp4-M1): 0.03125 µg/mL | Antibiotic FIC ([3]; combined with Chp6-M1): 0.25 | Antibiotic MIC in checkerboard ([3]; combined with Chp6-M1): 0.01562 µg/mL | Antibiotic MIC in checkerboard ([3]; combined with Chp10-M1): 0.007806 µg/mL | Antibiotic FIC ([3]; combined with Unp2-M1): 0.25 | Antibiotic MIC in checkerboard ([3]; combined with Unp2-M1): 0.01562 µg/mL | Antibiotic FIC ([4]; in combination with Chp4-M1): 0.25 | Antibiotic MIC ([4]; in combination with Chp4-M1): 0.03125 µg/mL | Antibiotic MIC ([4]; in combination with Chp6-M1): 0.01562 µg/mL | Antibiotic FIC ([4]; in combination with Chp10-M1): 0.25 | Antibiotic MIC ([4]; in combination with Chp10-M1): 0.03125 µg/mL | Antibiotic MIC ([4]; in combination with Unp2-M1): 0.03125 µg/mL | Antibiotic MIC in checkerboard ([4]; combined with Chp2): 0.007812 µg/mL | Antibiotic MIC in checkerboard ([4]; combined with Chp2-M1): 0.01562 µg/mL | Antibiotic MIC ([5]; in combination with Chp2): 0.0009766 µg/mL | Antibiotic FIC ([5]; in combination with Chp2-M1): 0.5 | Antibiotic FIC ([5]; in combination with Chp4-M1): 0.5 | Antibiotic MIC ([5]; in combination with Chp4-M1): 0.003906 µg/mL | Antibiotic FIC ([5]; in combination with Chp6-M1): 0.25 | Antibiotic FIC ([5]; in combination with Chp10-M1): 0.25 | Antibiotic MIC ([5]; in combination with Chp10-M1): 0.0009766 µg/mL | Antibiotic FIC ([5]; in combination with Unp2-M1): 0.5 | LPS binding (LPS; […]-64 μg/mL, 24° C., 1 hour): dose-dependent increases in LPS binding | % LPS Bound (LPS; peptide concentration 0.5 μg/mL): 22.5% | % LPS Bound (LPS; peptide concentration 1 μg/mL): 51.9% | % LPS Bound (LPS; peptide concentration 2 μg/mL): 74.2% | % LPS Bound (LPS; peptide concentration 4 μg/mL): 88.2% | % LPS Bound (LPS; peptide concentration 8 μg/mL): 92.4% | % LPS Bound (LPS; peptide concentration 16 μg/mL): 92.8% | % LPS Bound (LPS; peptide concentration 32 μg/mL): 92.2% | % LPS Bound (LPS; peptide concentration 64 μg/mL): 93.4%

MRRYNVNKGKSAKKFRKQVSKTKVANLRSNPMRGGWRL [Unp6]
MIC (100% CAA) [2]: 8 | 45 hr MIC (M. smegmatis): 16 µg/mL

MMKYRKKMSAKSSRKQFTKGAMKVKGKNFTKPMRGGIRL [Unp5]
MIC (μg/mL) against CFS-1292 in 100% CAA (1st run/2nd run) [1]: 2 µg/mL | MIC (μg/mL) against CFS-1292 in CAA + […] human serum [1]: 0.5 µg/mL | MIC50 (Pseudomonas aeruginosa): >8 µg/mL | MIC100 (Pseudomonas aeruginosa): >8 µg/mL | MIC (Enterobacter cloacae): 4 µg/mL | MIC (Escherichia coli): 1 µg/mL | MIC50 (Klebsiella pneumoniae; [7]): >8 µg/mL | MIC100 (Klebsiella pneumoniae; [7]): >8 µg/mL | MIC Range (Klebsiella pneumoniae; [7]): >8 µg/mL | MIC (Klebsiella pneumoniae): 4 µg/mL | MIC50 (Acinetobacter baumannii; [8]): 4 µg/mL | MIC100 (Acinetobacter baumannii; [8]): 8 µg/mL | MIC Range (Acinetobacter baumannii; [8]): 1 to 8 µg/mL | MIC (Acinetobacter baumannii): 8 µg/mL | MIC50 (S. maltophilia): >8 µg/mL | MIC100 (S. maltophilia): >8 µg/mL | MIC Range (S. maltophilia): >8 µg/mL | MIC ([6]; carbapenem-resistant isolate PA19): 8 µg/mL | MIC ([6]; carbapenem-resistant isolate PA20): >8 µg/mL | MIC ([6]; carbapenem-resistant isolate PA21): >8 µg/mL | MIC ([6]; carbapenem-resistant isolate PA22): >8 µg/mL | MIC ([6]; carbapenem-resistant isolate PA23): >8 µg/mL | MIC ([6]; carbapenem-resistant isolate PA24): >8 µg/mL | MIC ([6]; carbapenem-resistant isolate WLC-452): >8 µg/mL | MIC (100% CAA) [2]: 2 | 45 hr MIC (M. smegmatis): 8 µg/mL

MSSTLCRWAVKALRCTRVYKEFIWKPLVALSYVTLYLLSSVFLSQLSYPIGSWAV [Lvp1]
MIC (μg/mL) against CFS-1292 in 100% CAA (1st run/2nd run) [1]: >64 µg/mL | MIC (μg/mL) against CFS-1292 in CAA + […] human serum [1]: 0.5 µg/mL | MIC (μg/mL) against CFS-1292 in CAA + […] human serum ([1]; listed as Lvp1 + DTT): 2 µg/mL | MIC (100% CAA) [2]: >64 | 45 hr MIC (M. smegmatis): >128 µg/mL
